From patent publication US4742045A, “Glycopeptide antibiotics” (SmithKline Beckman Corporation, priority 1986, dated 1988)

System: S. haemolyticus
Assay: mice infected i.p., antibiotic i.v. 1 hr post infection, ED50
Type: in vivo
Protocol: In Table 6, below, is shown the ED50 in mg/kg of HPB4 in comparison to vancomycin and teicoplanin. Mice were injected i.p. with the indicated organism and then i.v., 1 hr post infection, with the indicated antibiotic.

CN[C@H](CC(C)C)C(=O)N[C@H]1C(=O)N[C@@H](CC(N)=O)C(=O)N[C@H]2C(=O)N[C@H]3C(=O)N[C@H](C(=O)N[C@H](C(=O)O)c4cc(O)cc(O)c4-c4cc3ccc4O)[C@H](O)c3ccc(c(Cl)c3)Oc3cc2cc(c3O[C@@H]2O[C@H](CO)[C@@H](O)[C@H](O)[C@H]2O[C@H]2C[C@](C)(N)[C@H](O)[C@H](C)O2)Oc2ccc(cc2Cl)[C@H]1O [Vancomycin, vancomycin]
ED50 (Staphylococcus haemolyticus, 1 h): 10 mg/kg

teicoplanin
ED50 (S. haemolyticus 651 (8 × LD50) i.p., antibiotic i.v. 1 hr post infection): > 100 mg/kg
